Experimental data reported in PubChem BioAssay AID256 (DTP/NCI, 2004).
Several values for one entry are separate records, joined by “and”; a condition that tells them apart may be missing. Equal entries are not always repeated. Inconclusive results and toxic doses are left out. The calls were made as follows: active = survival T/C of 150% or more; inactive = T/C below 125% in these data.

Test system: CD2F1 mice, L1210 leukemia ip, survival T/C
Assay: NCI In Vivo Anticancer Drug Screen. Data for tumor model L1210 Leukemia (intraperitoneal) in CD2F1 (CDF1) mice
Settings: higher = longer survival
Method in brief: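 Activity against a transplanted murine tumor was judged by comparing the compound group with a vehicle group. The outcome in the treated animals was divided by that in the controls.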

[1] = endpoint: mean survival time, dose: 100.0 mg/kg/injection, schedule: Q04DX002 (ip), vehicle: saline with Tween-80
[2] = endpoint: mean survival time, dose: 200.0 mg/kg/injection, schedule: Q04DX002 (ip), vehicle: saline with Tween-80
[3] = endpoint: mean survival time, dose: 400.0 mg/kg/injection, schedule: Q04DX002 (ip), vehicle: saline with Tween-80
[4] = endpoint: mean survival time, dose: 50.0 mg/kg/injection, schedule: Q01DX009 (ip), vehicle: Klucel (hydroxypropylcellulose) (HPC)
[5] = endpoint: mean survival time, dose: 25.0 mg/kg/injection, schedule: Q01DX009 (ip), vehicle: saline with Tween-80
[6] = endpoint: mean survival time, dose: 50.0 mg/kg/injection, schedule: Q01DX009 (ip), vehicle: saline with Tween-80
[7] = endpoint: mean survival time, dose: 100.0 mg/kg/injection, schedule: Q01DX001 (ip), vehicle: saline with Tween-80
[8] = endpoint: mean survival time, dose: 100.0 mg/kg/injection, schedule: Q01DX009 (ip), vehicle: saline with Tween-80
[9] = endpoint: mean survival time, dose: 100.0 mg/kg/injection, schedule: Q04DX003 (ip), vehicle: saline with Tween-80
[10] = endpoint: mean survival time, dose: 200.0 mg/kg/injection, schedule: Q01DX009 (ip), vehicle: saline with Tween-80
[11] = endpoint: mean survival time, dose: 200.0 mg/kg/injection, schedule: Q04DX003 (ip), vehicle: saline with Tween-80
[12] = endpoint: mean survival time, dose: 400.0 mg/kg/injection, schedule: Q01DX009 (ip), vehicle: saline with Tween-80
[13] = endpoint: mean survival time, dose: 400.0 mg/kg/injection, schedule: Q04DX003 (ip), vehicle: saline with Tween-80
[14] = endpoint: mean survival time, dose: 200.0 mg/kg/injection, schedule: Q01DX001 (ip), vehicle: saline with Tween-80
[15] = endpoint: mean survival time, dose: 400.0 mg/kg/injection, schedule: Q01DX001 (ip), vehicle: saline with Tween-80
[16] = endpoint: mean survival time, dose: 100.0 mg/kg/injection, schedule: Q01DX001 (ip), vehicle: saline
[17] = endpoint: mean survival time, dose: 200.0 mg/kg/injection, schedule: Q01DX001 (ip), vehicle: saline
[18] = endpoint: mean survival time, dose: 400.0 mg/kg/injection, schedule: Q01DX001 (ip), vehicle: saline
[19] = endpoint: mean survival time, dose: 50.0 mg/kg/injection, schedule: Q01DX001 (ip), vehicle: saline with Tween-80

Measured: T/C

CC12CCC(=O)C=C1CC(CC(=O)O)CC2 (configuration not stated)
inactive: [1] 100 % of control | [2] 108 % of control | [3] 104 % of control

O=C(CCc1ccc(O)cc1)ON1C(=O)CCC1=O
inactive: [4] 105 % of control

Cc1cc(C)c(C(Cl)(Cl)Cl)c(C)c1Cl
inactive: [5] 108 % of control | [6] 111 % of control | [7] 107 % of control

CC(C)(C)N[P+](Cc1ccc(C[P+](NC(C)(C)C)(NC(C)(C)C)c2ccccc2)cc1)(NC(C)(C)C)c1ccccc1
inactive: endpoint: mean survival time, dose: 1.56 mg/kg/injection, schedule: Q04DX003 (ip), vehicle: saline 109 % of control | endpoint: mean survival time, dose: 3.13 mg/kg/injection, schedule: Q04DX003 (ip), vehicle: saline 95 % of control

CC(=O)OCc1ncccc1OC(C)=O
inactive: endpoint: mean survival time, dose: 25.0 mg/kg/injection, schedule: Q01DX009 (ip), vehicle: suspension in saline 102 % of control | endpoint: mean survival time, dose: 50.0 mg/kg/injection, schedule: Q01DX009 (ip), vehicle: suspension in saline 98 % of control | endpoint: mean survival time, dose: 100.0 mg/kg/injection, schedule: Q01DX009 (ip), vehicle: suspension in saline 102 % of control | endpoint: mean survival time, dose: 200.0 mg/kg/injection, schedule: Q01DX009 (ip), vehicle: suspension in saline 93 % of control

Cc1ccc(NC(=O)c2ccc(C(=O)Nc3ccc(C)cc3)cc2)cc1
inactive: [8] 98 % of control | [9] 87 % of control | [10] 88 % of control | [11] 97 % of control | [12] 93 % of control | [13] 86 % of control

CCOC(=O)Nc1cc(NC(=O)OCC)cc([N+](=O)[O-])c1
inactive: [8] 98 % of control | [10] 98 % of control | [12] 106 % of control

CN(C)S(=O)(=O)c1ccccc1C(=O)O
inactive: endpoint: mean survival time, dose: 100.0 mg/kg/injection, schedule: Q04DX003 (ip), vehicle: saline sonified 100 % of control | endpoint: mean survival time, dose: 200.0 mg/kg/injection, schedule: Q04DX003 (ip), vehicle: saline sonified 100 % of control | endpoint: mean survival time, dose: 400.0 mg/kg/injection, schedule: Q04DX003 (ip), vehicle: saline sonified 93 % of control

CCOC(=O)C1CC1C#N (configuration not stated)
inactive: [9] 102 % of control | [11] 98 % of control | [13] 97 % of control

CCOCCNCc1ccc(Cl)cc1Cl
inactive: [9] 91 % of control | [11] 94 % of control

Nc1cn2ncnc2c(=O)[nH]1
inactive: endpoint: median survival time, dose: 50.0 mg/kg/injection, schedule: Q01DX005 (ip), vehicle: saline 106 % of control | endpoint: median survival time, dose: 100.0 mg/kg/injection, schedule: Q01DX005 (ip), vehicle: saline 106 % of control | endpoint: median survival time, dose: 200.0 mg/kg/injection, schedule: Q01DX005 (ip), vehicle: saline 113 % of control

CO/N=C(\N)c1ncn(C2OC3COP(=O)(O)OC3C2O)c1N (configuration not stated)
inactive: endpoint: median survival time, dose: 49.8 mg/kg/injection, schedule: Q01DX005 (ip), vehicle: saline 98 % of control | endpoint: median survival time, dose: 99.5 mg/kg/injection, schedule: Q01DX005 (ip), vehicle: saline 100 % of control | endpoint: median survival time, dose: 199.1 mg/kg/injection, schedule: Q01DX005 (ip), vehicle: saline 96 % of control

O=C(Nc1ccc2c(c1)Cc1cccc(NC(=O)C(Cl)Cl)c1-2)C(Cl)Cl
inactive: endpoint: mean survival time, dose: 12.5 mg/kg/injection, schedule: Q01DX009 (ip), vehicle: Klucel (hydroxypropylcellulose) (HPC) 90 % of control | endpoint: mean survival time, dose: 25.0 mg/kg/injection, schedule: Q01DX009 (ip), vehicle: Klucel (hydroxypropylcellulose) (HPC) 93 % of control | [4] 87 % of control

O=C(CCC(O)(C(=O)c1ccccc1)c1ccccc1)c1ccccc1 (configuration not stated)
inactive: [9] 91 % of control | [11] 94 % of control | [13] 88 % of control

O=C1c2ccccc2C(O)(c2[nH]nc3ccccc23)N1c1ccccc1 (configuration not stated)
inactive: endpoint: mean survival time, dose: 50.0 mg/kg/injection, schedule: Q04DX002 (ip), vehicle: saline with Tween-80 103 % of control | [1] 103 % of control | [2] 113 % of control | [3] 106 % of control

Cc1ccc(NC(=O)c2cccc(C(=O)Nc3ccc(C)cc3C)c2)c(C)c1
inactive: endpoint: mean survival time, dose: 12.5 mg/kg/injection, schedule: Q01DX009 (ip), vehicle: saline with Tween-80 94 % of control | [5] 90 % of control | [6] 89 % of control

O=[N+]([O-])c1ccc(NCS(=O)(=O)O)cc1
inactive: [7] 91 % of control | [14] 94 % of control | [15] 87 % of control

O=C1C=CC(=O)c2c1ccc1ccccc21
inactive: endpoint: mean survival time, dose: 12.5 mg/kg/injection, schedule: Q01DX001 (ip), vehicle: acetone 104 % of control | endpoint: mean survival time, dose: 25.0 mg/kg/injection, schedule: Q01DX001 (ip), vehicle: acetone 105 % of control | endpoint: mean survival time, dose: 50.0 mg/kg/injection, schedule: Q01DX001 (ip), vehicle: acetone 105 % of control

O=C(CCl)c1cc(Cl)c(O)c(Cl)c1
inactive: endpoint: mean survival time, dose: 50.0 mg/kg/injection, schedule: Q01DX001 (ip), vehicle: carboxymethylcellulose (CMC) 97 % of control

CCC(=O)c1ccc(OCOc2ccc(C(=O)CC)cc2OC)c(OC)c1
inactive: [16] 94 % of control | [17] 96 % of control | [18] 91 % of control

CC(O)C1OC(n2cnc3c(ncn3C3OC(C(C)O)C(O)C3O)c2=O)C(O)C1O (configuration not stated)
inactive: endpoint: mean survival time, dose: 10.63 mg/kg/injection, schedule: Q01DX005 (ip), vehicle: water 102 % of control | endpoint: mean survival time, dose: 21.25 mg/kg/injection, schedule: Q01DX005 (ip), vehicle: water 98 % of control | endpoint: mean survival time, dose: 42.5 mg/kg/injection, schedule: Q01DX005 (ip), vehicle: water 102 % of control | endpoint: mean survival time, dose: 85.0 mg/kg/injection, schedule: Q01DX005 (ip), vehicle: water 101 % of control | endpoint: mean survival time, dose: 170.0 mg/kg/injection, schedule: Q01DX005 (ip), vehicle: water 108 % of control

CC(=O)Oc1ccccc1N(C(C)=O)S(=O)(=O)c1ccc(C)cc1
inactive: endpoint: mean survival time, dose: 50.0 mg/kg/injection, schedule: Q04DX003 (ip), vehicle: saline 98 % of control | [16] 106 % of control | endpoint: mean survival time, dose: 100.0 mg/kg/injection, schedule: Q04DX003 (ip), vehicle: saline 101 % of control | [17] 108 % of control | endpoint: mean survival time, dose: 200.0 mg/kg/injection, schedule: Q04DX003 (ip), vehicle: saline 101 % of control | [18] 100 % of control

COc1ccc(CC(=O)C(C)C(O)(C(F)(F)F)C(F)(F)F)cc1OC (configuration not stated)
inactive: [9] 108 % of control | [11] 102 % of control | [13] 103 % of control

O=c1[nH]c2c([N+](=O)[O-])cc(Br)cc2c2ccccc12
inactive: endpoint: mean survival time, dose: 100.0 mg/kg/injection, schedule: Q01DX001 (ip), vehicle: carboxymethylcellulose (CMC) 100 % of control | endpoint: mean survival time, dose: 200.0 mg/kg/injection, schedule: Q01DX001 (ip), vehicle: carboxymethylcellulose (CMC) 94 % of control | endpoint: mean survival time, dose: 400.0 mg/kg/injection, schedule: Q01DX001 (ip), vehicle: carboxymethylcellulose (CMC) 100 % of control

C=Cn1ccnc1
inactive: endpoint: mean survival time, dose: 25.0 mg/kg/injection, schedule: Q01DX001 (ip), vehicle: saline with Tween-80 103 % of control | [19] 100 % of control | [7] 114 % of control and 118 % of control | [14] 97 % of control | [15] 101 % of control

ClCc1ccc2ccccc2n1
inactive: [8] 109 % of control | [9] 104 % of control | [10] 104 % of control | [11] 104 % of control | [13] 101 % of control

Cc1c2c(cc3c1CCC1(C)C(C(C)CCC(C)C(C)C)CC(O)C31O)CCCC2 (configuration not stated)
inactive: [19] 92 % of control | [7] 94 % of control | [9] 96 % of control | [14] 92 % of control | [11] 98 % of control | [13] 98 % of control

N\C([S-])=N/N=C\C(=N/N=C(\N)[S-])C(O)C(O)C(O)CO.[Pd+2] (configuration not stated)
inactive: [6] 112 % of control | [8] 104 % of control | [10] 89 % of control

c1ccc(CNCc2ccccc2)cc1
inactive: endpoint: mean survival time, dose: 100.0 mg/kg/injection, schedule: Q04DX003 (ip), vehicle: Klucel (hydroxypropylcellulose) (HPC) 97 % of control | endpoint: mean survival time, dose: 200.0 mg/kg/injection, schedule: Q04DX003 (ip), vehicle: Klucel (hydroxypropylcellulose) (HPC) 100 % of control

CCOC(=O)c1c[nH]c([O-])c1[N+]#N
inactive: [7] 94 % of control | [1] 100 % of control | [14] 96 % of control | [2] 107 % of control | [15] 91 % of control | [3] 103 % of control

O=C(Nc1ccc(Oc2ccc(Cl)c(Cl)c2)c(Cl)c1)Nc1cc(Cl)c(Cl)cc1S(=O)(=O)O
inactive: endpoint: mean survival time, dose: 100.0 mg/kg/injection, schedule: Q01DX001 (ip), vehicle: saline sonified 96 % of control | [8] 97 % of control | endpoint: mean survival time, dose: 200.0 mg/kg/injection, schedule: Q01DX001 (ip), vehicle: saline sonified 93 % of control | endpoint: mean survival time, dose: 400.0 mg/kg/injection, schedule: Q01DX001 (ip), vehicle: saline sonified 96 % of control
